Data reported in PubChem BioAssay (NCI).
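Where inhibition never reached the appropriate level, the endpoint shown equals the highest concentration tested. Otherwise, values were interpolated linearly from a five-concentration, 48-hour dose response in 96-well plates. TGI is the concentration that stops growth completely.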

How the values were obtained:
Assay in all cases: inhibition of tumour cell growth, NCI panel, 48 h
MDA-MB-435 = test system: MDA-MB-435
ACHN renal = test system: ACHN renal
SF-268 CNS = test system: SF-268 CNS
NCI/ADR-RES ovarian = test system: NCI/ADR-RES ovarian
HT29 colon = test system: HT29 colon
SF-539 CNS = test system: SF-539 CNS
HL-60(TB) leukemia = test system: HL-60(TB) leukemia
MOLT-4 leukemia = test system: MOLT-4 leukemia
SK-MEL-5 melanoma = test system: SK-MEL-5 melanoma
CCRF-CEM leukemia = test system: CCRF-CEM leukemia
UACC-62 melanoma = test system: UACC-62 melanoma
BT-549 breast = test system: BT-549 breast
SW-620 colon = test system: SW-620 colon
KM12 colon = test system: KM12 colon
SNB-75 CNS = test system: SNB-75 CNS
U251 CNS = test system: U251 CNS
A498 renal = test system: A498 renal
TK-10 renal = test system: TK-10 renal
SR leukemia = test system: SR leukemia
MDA-N = test system: MDA-N
UACC-257 melanoma = test system: UACC-257 melanoma
A549 NSCLC = test system: A549 NSCLC
T-47D breast = test system: T-47D breast
HOP-62 NSCLC = test system: HOP-62 NSCLC
OVCAR-3 ovarian = test system: OVCAR-3 ovarian
SK-OV-3 ovarian = test system: SK-OV-3 ovarian
SNB-19 CNS = test system: SNB-19 CNS
COLO 205 colon = test system: COLO 205 colon
DU-145 prostate = test system: DU-145 prostate
HCT-116 colon = test system: HCT-116 colon
HCC-2998 colon = test system: HCC-2998 colon
CAKI-1 renal = test system: CAKI-1 renal
UO-31 renal = test system: UO-31 renal
SK-MEL-28 melanoma = test system: SK-MEL-28 melanoma
SK-MEL-2 melanoma = test system: SK-MEL-2 melanoma
MCF7 breast = test system: MCF7 breast
NCI-H522 lung = test system: NCI-H522 lung
M14 melanoma = test system: M14 melanoma
LOX IMVI melanoma = test system: LOX IMVI melanoma
HCT-15 colon = test system: HCT-15 colon
NCI-H226 lung = test system: NCI-H226 lung
NCI-H460 lung = test system: NCI-H460 lung
PC-3 prostate = test system: PC-3 prostate
786-0 renal = test system: 786-0 renal
HS 578T breast = test system: HS 578T breast
OVCAR-5 ovarian = test system: OVCAR-5 ovarian
SN12C renal = test system: SN12C renal
MALME-3M melanoma = test system: MALME-3M melanoma
MDA-MB-231 breast = test system: MDA-MB-231 breast
RXF 393 renal = test system: RXF 393 renal
RPMI-8226 leukemia = test system: RPMI-8226 leukemia
K-562 leukemia = test system: K-562 leukemia
OVCAR-8 ovarian = test system: OVCAR-8 ovarian
IGROV1 ovarian = test system: IGROV1 ovarian
SF-295 CNS = test system: SF-295 CNS
OVCAR-4 ovarian = test system: OVCAR-4 ovarian
NCI-H23 lung = test system: NCI-H23 lung
HOP-92 NSCLC = test system: HOP-92 NSCLC
EKVX NSCLC = test system: EKVX NSCLC

S=c1[nH]nc(C23CC4CC(CC(C4)C2)C3)n1-c1ccc(Cl)cc1
TGI (MDA-MB-435): 55.9 µM
TGI (ACHN renal): 73.5 µM
TGI (SF-268 CNS): 50.1 µM
TGI (NCI/ADR-RES ovarian): 59.8 µM
TGI (HT29 colon): 36.8 µM
TGI (SF-539 CNS): 38 µM
TGI (HL-60(TB) leukemia): 8.41 µM
TGI (MOLT-4 leukemia): 49.4 µM
TGI (SK-MEL-5 melanoma): 14.4 µM
TGI (CCRF-CEM leukemia): 19.8 µM
TGI (UACC-62 melanoma): 25.3 µM
TGI (BT-549 breast): 29.9 µM
TGI (SW-620 colon): > 100 µM
TGI (KM12 colon): 52.9 µM
TGI (SNB-75 CNS): 72.1 µM
TGI (U251 CNS): 31.7 µM
TGI (A498 renal): 42.6 µM
TGI (TK-10 renal): 72.4 µM
TGI (SR leukemia): 16.4 µM
TGI (MDA-N): 41.1 µM
TGI (UACC-257 melanoma): 71.4 µM
TGI (A549 NSCLC): 72.2 µM
TGI (T-47D breast): 52 µM
TGI (HOP-62 NSCLC): 32.7 µM
TGI (OVCAR-3 ovarian): 30.4 µM
TGI (SK-OV-3 ovarian): 73.9 µM
TGI (SNB-19 CNS): > 100 µM
TGI (COLO 205 colon): 46 µM
TGI (DU-145 prostate): 95.9 µM
TGI (HCT-116 colon): 23.8 µM
TGI (HCC-2998 colon): 32.9 µM
TGI (CAKI-1 renal): 11.5 µM
TGI (UO-31 renal): 44.7 µM
TGI (SK-MEL-28 melanoma): 33.4 µM
TGI (SK-MEL-2 melanoma): 27.9 µM
TGI (MCF7 breast): 45.7 µM
TGI (NCI-H522 lung): 57.9 µM
TGI (M14 melanoma): 41.4 µM
TGI (LOX IMVI melanoma): 17 µM
TGI (HCT-15 colon): 23.3 µM
TGI (NCI-H226 lung): 55.8 µM
TGI (NCI-H460 lung): 56 µM
TGI (PC-3 prostate): 93.7 µM
TGI (786-0 renal): > 100 µM
TGI (HS 578T breast): 52.8 µM
TGI (OVCAR-5 ovarian): > 100 µM
TGI (SN12C renal): 39.9 µM
TGI (MALME-3M melanoma): 63.3 µM
TGI (MDA-MB-231 breast): 56.4 µM
TGI (RXF 393 renal): 38.1 µM
TGI (RPMI-8226 leukemia): 66.9 µM
TGI (K-562 leukemia): > 100 µM
TGI (OVCAR-8 ovarian): > 100 µM
TGI (IGROV1 ovarian): 42.9 µM
TGI (SF-295 CNS): 58.6 µM
TGI (OVCAR-4 ovarian): > 100 µM
TGI (NCI-H23 lung): > 100 µM

CC(C)c1nc(Cl)nc(Cl)c1Cl
TGI (MDA-MB-435): 2.69 µM
TGI (ACHN renal): 1.85 µM
TGI (SF-268 CNS): 9.12 µM
TGI (NCI/ADR-RES ovarian): > 56.4 µM
TGI (HT29 colon): 2.52 µM
TGI (SF-539 CNS): 1.82 µM
TGI (MOLT-4 leukemia): 0.176 µM
TGI (SK-MEL-5 melanoma): 6.7 µM
TGI (CCRF-CEM leukemia): 0.0358 µM
TGI (UACC-62 melanoma): 2.25 µM
TGI (BT-549 breast): 0.0335 µM
TGI (SW-620 colon): 0.858 µM
TGI (KM12 colon): 3.9 µM
TGI (SNB-75 CNS): 22.7 µM
TGI (U251 CNS): 2.43 µM
TGI (A498 renal): 9.37 µM
TGI (TK-10 renal): 4.28 µM
TGI (SR leukemia): 0.0209 µM
TGI (MDA-N): 4.9 µM
TGI (UACC-257 melanoma): 1.91 µM
TGI (A549 NSCLC): 18.6 µM
TGI (T-47D breast): 13.6 µM
TGI (HOP-62 NSCLC): 4.04 µM
TGI (OVCAR-3 ovarian): 1.74 µM
TGI (SK-OV-3 ovarian): 17.6 µM
TGI (SNB-19 CNS): 3.06 µM
TGI (HOP-92 NSCLC): 0.381 µM
TGI (COLO 205 colon): 13.9 µM
TGI (DU-145 prostate): 10.5 µM
TGI (HCT-116 colon): 1.41 µM
TGI (HCC-2998 colon): 13.1 µM
TGI (UO-31 renal): 0.166 µM
TGI (SK-MEL-28 melanoma): 2.72 µM
TGI (MCF7 breast): 6.11 µM
TGI (NCI-H522 lung): 1.54 µM
TGI (M14 melanoma): 1.83 µM
TGI (EKVX NSCLC): 6.62 µM
TGI (LOX IMVI melanoma): 0.198 µM
TGI (HCT-15 colon): 15.7 µM
TGI (NCI-H226 lung): 5.58 µM
TGI (NCI-H460 lung): 16.6 µM
TGI (PC-3 prostate): 4.19 µM
TGI (786-0 renal): 2.26 µM
TGI (HS 578T breast): 2.91 µM
TGI (OVCAR-5 ovarian): 3.93 µM
TGI (SN12C renal): 2.83 µM
TGI (MALME-3M melanoma): 12.9 µM
TGI (MDA-MB-231 breast): 5.64 µM
TGI (RXF 393 renal): 1.47 µM
TGI (RPMI-8226 leukemia): > 100 µM
TGI (K-562 leukemia): 0.0708 µM
TGI (OVCAR-8 ovarian): 2.45 µM
TGI (IGROV1 ovarian): 0.423 µM
TGI (SF-295 CNS): 8.91 µM
TGI (OVCAR-4 ovarian): 0.751 µM
TGI (NCI-H23 lung): 3.05 µM

CC1(C)C2CCC(=O)C1C(OCc1ccccc1)C2 (stereo not given)
TGI (MDA-MB-435): > 100 µM
TGI (ACHN renal): > 100 µM
TGI (SF-268 CNS): > 100 µM
TGI (NCI/ADR-RES ovarian): > 100 µM
TGI (HT29 colon): > 100 µM
TGI (SF-539 CNS): > 100 µM
TGI (HL-60(TB) leukemia): > 100 µM
TGI (MOLT-4 leukemia): > 100 µM
TGI (SK-MEL-5 melanoma): 50.6 µM
TGI (CCRF-CEM leukemia): > 100 µM
TGI (UACC-62 melanoma): > 100 µM
TGI (BT-549 breast): > 100 µM
TGI (SW-620 colon): > 100 µM
TGI (KM12 colon): > 100 µM
TGI (SNB-75 CNS): > 100 µM
TGI (U251 CNS): > 100 µM
TGI (A498 renal): > 100 µM
TGI (TK-10 renal): > 100 µM
TGI (SR leukemia): > 100 µM
TGI (MDA-N): > 100 µM
TGI (UACC-257 melanoma): > 100 µM
TGI (A549 NSCLC): > 100 µM
TGI (T-47D breast): > 100 µM
TGI (HOP-62 NSCLC): > 100 µM
TGI (OVCAR-3 ovarian): > 100 µM
TGI (SK-OV-3 ovarian): > 100 µM
TGI (SNB-19 CNS): > 100 µM
TGI (COLO 205 colon): > 100 µM
TGI (DU-145 prostate): > 100 µM
TGI (HCT-116 colon): > 100 µM
TGI (HCC-2998 colon): > 100 µM
TGI (CAKI-1 renal): > 100 µM
TGI (UO-31 renal): > 100 µM
TGI (SK-MEL-28 melanoma): > 100 µM
TGI (SK-MEL-2 melanoma): > 100 µM
TGI (MCF7 breast): > 100 µM
TGI (NCI-H522 lung): > 100 µM
TGI (M14 melanoma): > 100 µM
TGI (LOX IMVI melanoma): > 100 µM
TGI (HCT-15 colon): > 100 µM
TGI (NCI-H226 lung): > 100 µM
TGI (NCI-H460 lung): > 100 µM
TGI (PC-3 prostate): > 100 µM
TGI (786-0 renal): > 100 µM
TGI (HS 578T breast): > 100 µM
TGI (OVCAR-5 ovarian): > 100 µM
TGI (SN12C renal): > 100 µM
TGI (MALME-3M melanoma): > 100 µM
TGI (MDA-MB-231 breast): > 100 µM
TGI (RXF 393 renal): > 100 µM
TGI (RPMI-8226 leukemia): > 100 µM
TGI (K-562 leukemia): > 100 µM
TGI (OVCAR-8 ovarian): > 100 µM
TGI (IGROV1 ovarian): > 100 µM
TGI (SF-295 CNS): > 100 µM
TGI (OVCAR-4 ovarian): > 100 µM
TGI (NCI-H23 lung): > 100 µM
